This test has as its target kappa opioid receptor (OPRK1) (Homo sapiens (Human), UniProt P41145). Kind of test: OPRK1 antagonist assay (b-arrestin-2-TEV / b-lactamase reporter, EC80 U-50488 challenge). The format is cell-based. Particulars: OPRK1 antagonist assay vs EC80 U-50488.

Chain of kappa opioid receptor (OPRK1) (P41145 whole entry): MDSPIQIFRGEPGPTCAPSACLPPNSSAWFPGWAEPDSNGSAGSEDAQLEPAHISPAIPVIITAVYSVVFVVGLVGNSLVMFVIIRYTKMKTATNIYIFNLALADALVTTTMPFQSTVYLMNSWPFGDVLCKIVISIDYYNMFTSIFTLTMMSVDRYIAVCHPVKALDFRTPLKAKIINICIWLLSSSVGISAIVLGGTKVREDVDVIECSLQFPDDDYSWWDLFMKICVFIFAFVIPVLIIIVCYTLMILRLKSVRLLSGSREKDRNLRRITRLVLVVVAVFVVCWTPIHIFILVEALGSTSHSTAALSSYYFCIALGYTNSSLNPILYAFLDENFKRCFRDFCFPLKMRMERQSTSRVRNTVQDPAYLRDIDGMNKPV

By IC50 is commonly meant the point on the concentration scale where inhibition reaches its midpoint. Lower therefore signals greater potency. Compound `Cc1ccc2nc(N3CCC(NC4CCC[C@@H]4O)CC3)c(-c3noc(C)n3)cc2c1` (stereo partly drawn) [compound 418] registered an IC50 of 0.05 µM.

In turn, `COC(=O)c1cc(-c2ccccc2)cnc1N1CCC(NC2CCCCC2)CC1` [C13] gave an IC50 of more than 10 µM.

On to `Cc1ccc2nc(N3CCC(NC(C)C)CC3)c(-c3nc(C)no3)cc2c1` [C73], for which the IC50 is more than 10 µM.
